The target in the first assay is Nanoluciferase-BRD9 fusion protein (Homo sapiens (Human), UniProt Q9H8M2). The assay can be described thus: SYO1 BRD9 NanoLuc degradation assay. It counts as cell-based. The note with it: Table 5A; SYO-1 cells expressing 3×FLAG-NLuc-BRD9, 6 hours; read-out: SYO1 BRD9-NanoLuc degradation IC50. The procedure: Procedure: A stable SYO-1 cell line expressing 3×FLAG-NLuc-BRD9 was generated. On day 0 cells were seeded in 30 μL media into each well of 384-well cell culture plates. The seeding density was 8000 cells/well. […] Subsequently plates were incubated for 6 hours in a standard tissue culture incubator and equilibrated at room temperature for 15 minutes. Nanoluciferase activity was measured by adding 15 μL of freshly prepared Nano-Glo Luciferase Assay Reagent (Promega N1130), shaking the plates for 10 minutes and reading the bioluminescence using an EnVision reader.
Sequence of Nanoluciferase-BRD9 fusion protein (Q9H8M2 whole entry, the tested form may be a part): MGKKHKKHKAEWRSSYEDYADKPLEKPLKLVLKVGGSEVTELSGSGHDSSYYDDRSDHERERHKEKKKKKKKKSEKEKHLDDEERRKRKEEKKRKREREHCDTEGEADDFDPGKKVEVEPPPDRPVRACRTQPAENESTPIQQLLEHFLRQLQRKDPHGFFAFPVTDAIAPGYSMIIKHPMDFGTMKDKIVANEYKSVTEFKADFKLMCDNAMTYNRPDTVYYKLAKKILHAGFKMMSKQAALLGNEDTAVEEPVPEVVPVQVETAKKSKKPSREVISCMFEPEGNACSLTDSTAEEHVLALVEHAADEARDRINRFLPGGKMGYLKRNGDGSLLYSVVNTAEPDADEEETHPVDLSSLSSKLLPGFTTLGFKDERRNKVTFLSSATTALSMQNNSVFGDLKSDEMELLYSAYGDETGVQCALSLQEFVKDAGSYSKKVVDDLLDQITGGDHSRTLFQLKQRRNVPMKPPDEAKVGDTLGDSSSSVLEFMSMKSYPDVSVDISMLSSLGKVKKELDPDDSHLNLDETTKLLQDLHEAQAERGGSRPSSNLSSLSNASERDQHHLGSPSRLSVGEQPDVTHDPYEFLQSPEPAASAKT
DMSO treated cells are employed as High Control (HC) and 1 μM of a known BRD9 degrader standard treated cells are employed as Low Control (LC).
Regarding `COc1cc(-c2cn(C)c(=O)c3cnccc23)cc(OC)c1CN1CC2(CN(CCOc3ccc4c(c3)C(=O)N(C3CCC(=O)NC3=O)C4=O)C2)C1` (centres unmarked) [Compound D43, 5-[2-(6-[[2,6-Dimethoxy-4-(2-methyl-1-oxo-2,7-naphthyridin-4-yl)phenyl]methyl]-2,6-diazaspiro[3.3]heptan-2-yl)ethoxy]-2-(2,6-dioxopiperidin-3-yl)isoindole-1,3-dione formic acid], the DC50 lay within 100 to 1000 nM.

As for `COc1cc(-c2cn(C)c(=O)c3cnccc23)cc(OC)c1CN1CCC2(CC1)CC(NC(=O)CCOCCOc1cccc3c1C(=O)N(C1CCC(=O)NC1=O)C3=O)C2` (centres unmarked) [Compound D82], the DC50 was 10 to 100 nM.

As for `COc1cc(-c2cn(C)c(=O)c3cnccc23)cc(OC)c1CN1CC(CC(=O)NC2CC3(C2)CC(Oc2ccc4c(c2)C(=O)N(C2CCC(=O)NC2=O)C4=O)C3)C1` (centres unmarked) [Compound D78], the DC50 fell in the range of 10 to 100 nM.

The same assay, now with this note: Table 5B; SYO-1 cells expressing 3×FLAG-NLuc-BRD9, 6 hours; read-out: SYO1 BRD9-NanoLuc degradation IC50.
On to `COc1cc(-c2cn(C)c(=O)c3cnccc23)cc(OC)c1CN1CCC(c2cc(COc3ccc4c(c3)C(=O)N(C3CCC(=O)NC3=O)C4=O)on2)CC1` (centres unmarked) [Compound D322], for which the DC50 is less than 10 nM.

With `COc1cc(-c2cn(C)c(=O)c3cnccc23)cc(OC)c1CN(C)C(=O)CCCCN1CC2(CCN(c3ccc4c(c3)C(=O)N(C3CCC(=O)NC3=O)C4=O)C2)C1` (centres unmarked) [Compound D187], the DC50 is less than 10 nM.

For the compound `COc1cc(-c2cn(C)c(=O)c3cnccc23)cc(OC)c1CN(C)C(=O)CCCCN1CCC2(CC(Oc3ccc4c(c3)C(=O)N(C3CCC(=O)NC3=O)C4=O)C2)C1` (centres unmarked) [Compound D263], the DC50 is less than 10 nM.

`COc1cc(-c2cn(C)c(=O)c3cnccc23)cc(OC)c1CN(C)CCCn1cc(COC2CN(c3ccc4c(c3)C(=O)N(C3CCC(=O)NC3=O)C4=O)C2)nn1` (centres unmarked) [Compound D286]: the DC50 was 10 to 100 nM.

In the case of `COc1cc(-c2cn(C)c(=O)c3cnccc23)cc(OC)c1CN(C)CCCCNC1CC2(C1)CN(c1ccc3c(c1)C(=O)N(C1CCC(=O)NC1=O)C3=O)C2` (centres unmarked) [Compound D250], the DC50 was less than 10 nM.

Regarding `COc1cc(-c2cn(C)c(=O)c3cnccc23)cc(OC)c1CN(C)CCn1cc(CN2CC(Oc3ccc4c(c3)C(=O)N(C3CCC(=O)NC3=O)C4=O)C2)nn1` (centres unmarked) [Compound D276], the DC50 lay within 10 to 100 nM.

`COc1cc(-c2cn(C)c(=O)c3cnccc23)cc(OC)c1CN1CC2(CCN(C(=O)CC#Cc3ccc4c(c3)C(=O)N(C3CCC(=O)NC3=O)C4=O)CC2)C1` (centres unmarked) [Compound D312]: the DC50 is less than 10 nM.

With `COc1cc(-c2cn(C)c(=O)c3cnccc23)cc(OC)c1CN(C)C(=O)CCCCNC1CC12CCN(c1ccc3c(c1)C(=O)N(C1CCC(=O)NC1=O)C3=O)C2` (centres unmarked) [Compound D258], the DC50 was less than 10 nM.

With `COc1cc(-c2cn(C)c(=O)c3cnccc23)cc(OC)c1CN1CC(CC(=O)N2CC(Oc3ccc4c(c3)C(=O)N(C3CCC(=O)NC3=O)C4=O)C2)C1` (centres unmarked) [Compound D233], the DC50 is 100 to 1000 nM.

`COc1cc(-c2cn(C)c(=O)c3cnccc23)cc(OC)c1CN1CC2(CCN(CCCC#Cc3ccc4c(c3)C(=O)N(C3CCC(=O)NC3=O)C4=O)C2)C1` (centres unmarked) [Compound D211]: the DC50 is less than 10 nM.

Regarding `COc1cc(-c2cn(C)c(=O)c3cnccc23)cc(OC)c1CN(C)C(=O)CCCCN1CC2(CCC(Oc3ccc4c(c3)C(=O)N(C3CCC(=O)NC3=O)C4=O)C2)C1` (centres unmarked) [Compound D207], the DC50 was less than 10 nM.

Take `COc1cc(-c2cn(C)c(=O)c3cnccc23)cc(OC)c1CN1CCC2(C1)CN(C(=O)CC#Cc1ccc3c(c1)C(=O)N(C1CCC(=O)NC1=O)C3=O)C2` (centres unmarked) [Compound D314]: the DC50 lay within 10 to 100 nM.

On to `COc1cc(-c2cn(C)c(=O)c3cnccc23)cc(OC)c1CN(C)CCOCCOCCNc1cccc2nc(C)n(C3CCC(=O)NC3=O)c(=O)c12` (centres unmarked) [DD3], for which the DC50 was greater than 1000 nM.

`COc1cc(-c2cn(C)c(=O)c3cnccc23)cc(OC)c1CN(C)CCOCCn1cc(CCOc2ccc3c(c2)C(=O)N(C2CCC(=O)NC2=O)C3=O)nn1` (centres unmarked) [Compound D292]: the DC50 lay within 100 to 1000 nM.

For `COc1cc(-c2cn(C)c(=O)c3cnccc23)cc(OC)c1CN1CCC2(CC1)CCN(C(=O)C#Cc1ccc3c(c1)C(=O)N(C1CCC(=O)NC1=O)C3=O)C2` (centres unmarked) [Compound D240], the DC50 was less than 10 nM.

As for `COc1cc(-c2cn(C)c(=O)c3cnccc23)cc(OC)c1CN1CCC2C(C1)CN2C(=O)CC#Cc1ccc2c(c1)C(=O)N(C1CCC(=O)NC1=O)C2=O` (centres unmarked) [Compound D315], the DC50 was less than 10 nM.

`COc1cc(-c2cn(C)c(=O)c3cnccc23)cc(OC)c1CN(C)C(=O)CCCCN1CC2(CC(Oc3ccc4c(c3)C(=O)N(C3CCC(=O)NC3=O)C4=O)C2)C1` (centres unmarked) [Compound D230]: the DC50 was less than 10 nM.

Consider `COc1cc(-c2cn(C)c(=O)c3cnccc23)cc(OC)c1Cn1cc(COC2CCN(c3ccc4c(c3)C(=O)N(C3CCC(=O)NC3=O)C4=O)CC2)nn1` (centres unmarked) [Compound D272], for which the DC50 is less than 10 nM.

As to `COc1cc(-c2cc(C(F)F)c(=O)n(C)c2)cc(OC)c1CN1CCC2(CC1)CN(c1ccc3c(c1)C(=O)N(C1CCC(=O)NC1=O)C3=O)C2` (centres unmarked) [Compound D341], the DC50 was less than 10 nM.

Turning to `COc1cc(-c2cn(C)c(=O)c3cnccc23)cc(OC)c1CN(C)CCCCNC1CC2(C1)CC(Oc1ccc3c(c1)C(=O)N(C1CCC(=O)NC1=O)C3=O)C2` (centres unmarked) [Compound D257], the DC50 is less than 10 nM.

As to `COc1cc(-c2cn(C)c(=O)c3cnccc23)cc(OC)c1CN1CC(S(=O)(=O)NCCN2CCN(c3ccc4c(c3)C(=O)N(C3CCC(=O)NC3=O)C4=O)CC2)C1` (centres unmarked) [Compound D179], the DC50 lay in the range of 10 to 100 nM.

As for `COc1cc(-c2cn(C)c(=O)c3cnccc23)cc(OC)c1CN1CC(CC(=O)N2CCC3(CC(Oc4ccc5c(c4)C(=O)N([C@@H]4CCC(=O)NC4=O)C5=O)C3)C2)C1` (some centres unmarked) [Compound D266], the DC50 fell in the range of 10 to 100 nM.

For the compound `COc1cc(-c2cn(C)c(=O)c3cnccc23)cc(OC)c1CN(C)CCOCCn1cc(COC2CN(c3ccc4c(c3)C(=O)N(C3CCC(=O)NC3=O)C4=O)C2)nn1` (centres unmarked) [Compound D295], the DC50 was 100 to 1000 nM.

Regarding `COc1cc(-c2cn(C)c(=O)c3cnccc23)cc(OC)c1CN(C)C(=O)CCCCNC1CC2(C1)CC(Oc1ccc3c(c1)C(=O)N(C1CCC(=O)NC1=O)C3=O)C2` (centres unmarked) [Compound D260], the DC50 was less than 10 nM.

With `COc1cc(-c2cn(C)c(=O)c3cnccc23)cc(OC)c1CN(C)CCCCNC1CCC12CN(c1ccc3c(c1)C(=O)N(C1CCC(=O)NC1=O)C3=O)C2` (centres unmarked) [Compound D245], the DC50 lay within 10 to 100 nM.

As for `COc1cc(-c2cc(C#N)c(=O)n(C)c2)cc(OC)c1CN1CC(CN2CCC3(CC2)CN(c2ccc4c(c2)C(=O)N(C2CCC(=O)NC2=O)C4=O)C3)C1` (centres unmarked) [Compound D352], the DC50 was greater than 1000 nM.

With `COc1cc(-c2cn(C)c(=O)c3cnccc23)cc(OC)c1CN1CC2(CCN(CC#Cc3ccc4c(c3)C(=O)N(C3CCC(=O)NC3=O)C4=O)C2)C1` (centres unmarked) [Compound D306], the DC50 was less than 10 nM.

For the compound `COc1cc(-c2cc(C)c(=O)n(C)n2)cc(OC)c1CN1CCC2(CC1)CN(c1ccc3c(c1)C(=O)N(C1CCC(=O)NC1=O)C3)C2` (centres unmarked) [Compound D358], the DC50 is less than 10 nM.

The same assay, now with this note: Table 5C; SYO-1 cells expressing 3×FLAG-NLuc-BRD9, 6 hours; read-out: SYO1 BRD9-NanoLuc degradation IC50.
Regarding `COc1cc(-c2cc(C)c(=O)n(C)c2)cc(OC)c1CN1CCC(C#Cc2ccc3c(c2)C(=O)N(C2CCC(=O)NC2=O)C3)C1` (centres unmarked) [Compound D442], the DC50 was less than 10 nM.

`COc1cc(-c2cc(C(F)F)c(=O)n(C)c2)cc(OC)c1C1CN(c2ccc3c(c2)C(=O)N(C2CCC(=O)NC2=O)C3)C1` (centres unmarked) [Compound D455]: the DC50 was less than 10 nM.

On to `COc1cc(-c2cc(C(F)F)c(=O)n(C)c2)cc(OC)c1CN1CCC2(CC1)CN(c1ccc3c(c1)C(=O)N(C1CCC(=O)NC1=O)C3)C2` (centres unmarked) [Compound D425], for which the DC50 is less than 10 nM.

On to `COc1cc(-c2cc(C(F)F)c(=O)n(C)c2)cc(OC)c1CN1CCC2(C1)CN(c1ccc3c(c1)CN(C1CCC(=O)NC1=O)C3=O)C2` (centres unmarked) [Compound D408], for which the DC50 was less than 10 nM.

With `COc1cc(-c2cn(C)c(=O)c3cn(C)nc23)cc(OC)c1CN1CCN(CCC2CCN(c3ccc4c(c3)C(=O)N(C3CCC(=O)NC3=O)C4)CC2)CC1` (centres unmarked) [Compound D400], the DC50 is less than 10 nM.

Take `COc1cc(-c2cn(C)c(=O)c3[nH]ncc23)cc(OC)c1CN1CCC2(CC1)CN(c1ccc3c(c1)C(=O)N(C1CCC(=O)NC1=O)C3)C2` (centres unmarked) [Compound D433]: the DC50 is less than 10 nM.

For `COc1cc(-c2cn(C)c(=O)c3cnccc23)cc(OC)c1CN1CC(Oc2ccc3c(c2)C(=O)N(C2CCC(=O)NC2=O)C3=O)C1` (centres unmarked) [Compound D372], the DC50 is less than 10 nM.

`COc1cc(-c2cc(C)c(=O)n(C)c2)cc(OC)c1CN1CC(CCc2ccc3c(c2)C(=O)N(C2CCC(=O)NC2=O)C3)C1` (centres unmarked) [Compound D448]: the DC50 is less than 10 nM.

Consider `COc1cc(-c2cc(C(F)F)c(=O)n(C)c2)cc(OC)c1CN1CCC2(C1)CN(c1ccc3c(c1)C(=O)N(C1CCC(=O)NC1=O)C3)C2` (centres unmarked) [Compound D403], for which the DC50 is less than 10 nM.

`COc1cc(-c2cn(C)c(=O)c3cnccc23)cc(OC)c1CN1CC(Oc2ccc3c(c2)C(=O)N(C2CCC(=O)NC2=O)C3)C1` (centres unmarked) [Compound D378]: the DC50 is less than 10 nM.

`COc1cc(-c2cn(C)c(=O)c3cnccc23)cc(OC)c1CN1CCC2(CC1)CN(c1cccc(C(=O)NC3CCC(=O)NC3=O)c1)C2` (centres unmarked) [Compound D392]: the DC50 fell in the range of 10 to 100 nM.

In the case of `COc1cc(-c2cc(C(F)F)c(=O)n(C)c2)cc(OC)c1CN1CC(C#Cc2ccc3c(c2)CN(C2CCC(=O)NC2=O)C3=O)C1` (centres unmarked) [Compound D441], the DC50 was less than 10 nM.

For `COc1cc(-c2cn(C)c(=O)c3[nH]cc(C)c23)cc(OC)c1CN1CCC2(CC1)CN(c1ccc3c(c1)C(=O)N(C1CCC(=O)NC1=O)C3=O)C2` (centres unmarked) [Compound D418], the DC50 is less than 10 nM.

The values are drawn from US11414416B1, “Compounds and uses thereof” (Foghorn Therapeutics Inc., priority 2019, dated 2022).
